From publication PMC8379219 (Nature Communications, 2021)
Values joined by “and” are separate entries in the source; they are usually repeats but may differ in a detail not shown here. Equal values may be shown once. “Also recorded” adds a separate entry of the source. Read-outs that look alike come from different tables or passages of the source.

Key:
SERT [1] = target: T1, SERT (Homo sapiens, UniProt P31645); assay: [3H]IMI dissociation from SERT by VLZ in absence or presence of 10 µM Fab fragment; assay type: binding; conditions: for Fab fragment VLZ allostery w [3H]IMI Dissoc (Suppl. Fig 3A): ctrl = 1
T1 construct: expressed in transfected cells; host or cells: membranes of COS-7 cells, transient transfection

SERT [2] = target: T1, SERT; assay: [3H]S-CIT dissociation from SERT by VLZ in absence or presence of 10 µM Fab fragment; assay type: binding
SERT WT [3] = target: T2, SERT WT (Homo sapiens, UniProt P31645)
SERT Y95F = SERT Y95F (Homo sapiens, UniProt P31645, Y95F)
SERT S438T = SERT S438T (Homo sapiens, UniProt P31645, S438T)
SERT WT [4] = target: T2, SERT WT; remark: listed apart in the source
SERT WT [5] = target: T2, SERT WT; conditions: Log[VLZ] (M) -4; ctrl = 1; replicates
SERT WT [6] = target: T2, SERT WT; assay: [3H]IMI dissociation rate assay (allosteric potency), COS-7 membranes; assay type: binding; design: expressed in transfected cells; host or cells: COS-7;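 also: radioligand pre-bound 30 min at room temperature to equilibrium, then dissociation followed over 5–70 min, ended by filtration through GF/B filters, at least three independent experiments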

Sequence of SERT Y95F (P31645 whole entry Y95F): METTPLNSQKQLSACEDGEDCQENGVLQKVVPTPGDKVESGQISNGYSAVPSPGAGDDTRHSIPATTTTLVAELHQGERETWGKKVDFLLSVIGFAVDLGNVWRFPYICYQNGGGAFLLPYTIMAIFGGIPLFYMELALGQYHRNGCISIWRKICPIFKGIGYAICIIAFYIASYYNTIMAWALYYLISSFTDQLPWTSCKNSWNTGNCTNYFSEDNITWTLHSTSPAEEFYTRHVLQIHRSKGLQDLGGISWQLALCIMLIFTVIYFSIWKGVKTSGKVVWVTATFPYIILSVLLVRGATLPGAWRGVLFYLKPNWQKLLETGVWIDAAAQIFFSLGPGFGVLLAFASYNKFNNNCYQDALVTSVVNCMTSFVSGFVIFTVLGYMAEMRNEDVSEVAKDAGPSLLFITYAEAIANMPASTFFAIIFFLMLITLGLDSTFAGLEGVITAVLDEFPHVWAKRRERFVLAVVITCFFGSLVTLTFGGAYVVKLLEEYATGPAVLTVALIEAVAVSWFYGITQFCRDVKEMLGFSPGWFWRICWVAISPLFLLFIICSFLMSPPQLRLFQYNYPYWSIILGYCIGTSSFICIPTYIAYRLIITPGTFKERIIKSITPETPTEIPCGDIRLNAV
Sequence of SERT S438T (P31645 whole entry S438T): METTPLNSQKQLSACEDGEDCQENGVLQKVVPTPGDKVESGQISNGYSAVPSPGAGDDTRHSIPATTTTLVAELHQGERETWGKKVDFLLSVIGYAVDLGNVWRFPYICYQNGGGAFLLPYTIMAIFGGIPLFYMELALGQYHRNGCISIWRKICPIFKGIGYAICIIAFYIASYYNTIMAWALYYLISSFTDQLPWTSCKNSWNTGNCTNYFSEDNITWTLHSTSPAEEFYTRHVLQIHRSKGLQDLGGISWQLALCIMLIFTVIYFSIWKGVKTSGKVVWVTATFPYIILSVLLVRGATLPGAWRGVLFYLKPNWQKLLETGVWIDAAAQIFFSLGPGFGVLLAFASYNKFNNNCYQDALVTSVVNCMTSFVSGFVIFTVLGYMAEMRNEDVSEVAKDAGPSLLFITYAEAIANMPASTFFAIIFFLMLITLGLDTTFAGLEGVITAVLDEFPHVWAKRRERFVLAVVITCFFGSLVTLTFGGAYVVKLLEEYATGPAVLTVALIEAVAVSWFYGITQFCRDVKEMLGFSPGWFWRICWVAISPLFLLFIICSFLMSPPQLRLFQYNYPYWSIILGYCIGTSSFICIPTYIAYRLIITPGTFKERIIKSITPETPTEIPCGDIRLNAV
T1 sequence (P31645 whole entry, the tested form may be a part): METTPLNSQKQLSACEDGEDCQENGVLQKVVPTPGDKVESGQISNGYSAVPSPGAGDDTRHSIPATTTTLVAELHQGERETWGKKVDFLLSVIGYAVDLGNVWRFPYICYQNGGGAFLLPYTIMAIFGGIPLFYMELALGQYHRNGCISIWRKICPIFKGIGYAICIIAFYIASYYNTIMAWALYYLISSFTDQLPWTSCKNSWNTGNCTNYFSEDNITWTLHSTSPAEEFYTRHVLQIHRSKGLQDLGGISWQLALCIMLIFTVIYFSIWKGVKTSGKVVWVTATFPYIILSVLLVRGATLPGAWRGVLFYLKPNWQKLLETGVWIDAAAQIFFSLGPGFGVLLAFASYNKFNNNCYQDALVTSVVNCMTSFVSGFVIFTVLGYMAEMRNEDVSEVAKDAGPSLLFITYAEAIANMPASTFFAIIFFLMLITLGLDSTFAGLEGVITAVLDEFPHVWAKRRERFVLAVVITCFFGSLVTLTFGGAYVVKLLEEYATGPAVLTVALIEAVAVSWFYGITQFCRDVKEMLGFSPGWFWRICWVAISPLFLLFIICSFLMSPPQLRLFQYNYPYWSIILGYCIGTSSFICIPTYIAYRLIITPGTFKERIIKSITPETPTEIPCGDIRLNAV
T2 sequence (P31645 whole entry): as the sequence (P31645 whole entry, the tested form may be a part) above

Structure (SMILES): N#Cc1ccc2[nH]cc(CCCCN3CCN(c4ccc5oc(C(N)=O)cc5c4)CC3)c2c1 [VLZ, Vilazodone]
- Effect of Fab fragment on allosteric potency of VLZ ([3H]IMI dissociation) (SERT [1]; 10 µM Fab, n = 1): no apparent effect; also recorded: unaffected
- Fab fragment VLZ allostery w [3H]IMI Dissoc (Suppl. Fig 3A) (SERT [1]; SERT WT, Log[VLZ] (M) -6): 0
- Fab fragment VLZ allostery w [3H]IMI Dissoc (Suppl. Fig 3A) (SERT [1]; SERT WT, Log[VLZ] (M) -7.34): 0.0851
- Fab fragment VLZ allostery w [3H]IMI Dissoc (Suppl. Fig 3A) (SERT [1]; SERT WT, Log[VLZ] (M) -7.817): 0.2902
- Fab fragment VLZ allostery w [3H]IMI Dissoc (Suppl. Fig 3A) (SERT [1]; SERT WT, Log[VLZ] (M) -8.294): 0.4378
- Fab fragment VLZ allostery w [3H]IMI Dissoc (Suppl. Fig 3A) (SERT [1]; w. Fab fragment, Log[VLZ] (M) -6): 0
- Fab fragment VLZ allostery w [3H]IMI Dissoc (Suppl. Fig 3A) (SERT [1]; w. Fab fragment, Log[VLZ] (M) -7.34): 0.077
- Fab fragment VLZ allostery w [3H]IMI Dissoc (Suppl. Fig 3A) (SERT [1]; w. Fab fragment, Log[VLZ] (M) -7.817): 0.2744
- Fab fragment VLZ allostery w [3H]IMI Dissoc (Suppl. Fig 3A) (SERT [1]; w. Fab fragment, Log[VLZ] (M) -8.294): 0.5049
- Effect of Fab fragment on allosteric potency of VLZ ([3H]S-CIT dissociation) (SERT [2]; 10 µM Fab, n = 1): no apparent effect; also recorded: unaffected
- Fab fragment VLZ allostery w [3H]S-CIT Dissoc (Suppl. Fig 3B) (SERT [2]; SERT WT, Log[VLZ] (M) -4, ctrl 0.9997): 0
- Fab fragment VLZ allostery w [3H]S-CIT Dissoc (Suppl. Fig 3B) (SERT [2]; SERT WT, Log[VLZ] (M) -6.046, ctrl 0.9997): 0.25
- Fab fragment VLZ allostery w [3H]S-CIT Dissoc (Suppl. Fig 3B) (SERT [2]; SERT WT, Log[VLZ] (M) -6.523, ctrl 0.9997): 0.5086
- Fab fragment VLZ allostery w [3H]S-CIT Dissoc (Suppl. Fig 3B) (SERT [2]; SERT WT, Log[VLZ] (M) -7, ctrl 0.9997): 0.7481
- Fab fragment VLZ allostery w [3H]S-CIT Dissoc (Suppl. Fig 3B) (SERT [2]; w. Fab fragment, Log[VLZ] (M) -6.046, ctrl 0.9993): 0.2288
- Fab fragment VLZ allostery w [3H]S-CIT Dissoc (Suppl. Fig 3B) (SERT [2]; w. Fab fragment, Log[VLZ] (M) -6.523, ctrl 0.9993): 0.3777
- Fab fragment VLZ allostery w [3H]S-CIT Dissoc (Suppl. Fig 3B) (SERT [2]; w. Fab fragment, Log[VLZ] (M) -7, ctrl 0.9993): 0.7313
- Hill slope for inhibition of [3H]5-HT uptake (SERT WT [3]): ~ 2
- [3H]5-HT uptake inhibition (SERT WT [3]; Log[VLZ] (M) -7.5): 2.2056 and 2.462 and 3.034 and 2.528
- [3H]5-HT uptake inhibition (SERT WT [3]; Log[VLZ] (M) -9.5): 92.7238
- [3H]5-HT uptake inhibition (SERT WT [3]; Log[VLZ] (M) -10): 95.9437
- [3H]5-HT uptake inhibition (SERT WT [3]; Log[VLZ] (M) -10.5): 103.235
- [3H]5-HT uptake inhibition (SERT WT [3]; Log[VLZ] (M) -11): 103.321 and 85.9044
- [3H]5-HT uptake inhibition S1 Mutants (SERT Y95F; Log[VLZ] (M) -7.5): 2.147 and 2.505 and 1.589 and 2.318
- [3H]5-HT uptake inhibition S1 Mutants (SERT Y95F; Log[VLZ] (M) -8): 11.0058 and 6.5 and 7.569
- [3H]5-HT uptake inhibition S1 Mutants (SERT Y95F; Log[VLZ] (M) -8.5): 23.4424 and 34.8885 and 39.8853 and 24.3563
- [3H]5-HT uptake inhibition S1 Mutants (SERT Y95F; Log[VLZ] (M) -9): 48.3194 and 75.9314 and 68.9865 and 51.2725
- [3H]5-HT uptake inhibition S1 Mutants (SERT Y95F; Log[VLZ] (M) -9.5): 92.5116 and 89.0566
- [3H]5-HT uptake inhibition S1 Mutants (SERT Y95F; Log[VLZ] (M) -10): 97.9526 and 106.373 and 93.3855 and 88.0755
- [3H]5-HT uptake inhibition S1 Mutants (SERT Y95F; Log[VLZ] (M) -10.5): 100.1 and 92.5093 and 97.0473 and 106.269
- [3H]5-HT uptake inhibition S1 Mutants (SERT Y95F; Log[VLZ] (M) -11): 98.0826 and 93.7606
- [3H]5-HT uptake inhibition S1 Mutants (SERT Y95F; Log[VLZ] (M) -12): 96.3138 and 97.3606 and 96.312 and 100.229
- [3H]5-HT uptake inhibition S1 Mutants (SERT S438T; Log[VLZ] (M) -8): 14.775 and 11.8665 and 12.0164 and 12.3243
- [3H]5-HT uptake inhibition S1 Mutants (SERT S438T; Log[VLZ] (M) -8.5): 41.3444 and 41.8738 and 54.9583 and 30.416
- [3H]5-HT uptake inhibition S1 Mutants (SERT S438T; Log[VLZ] (M) -9): 69.6167 and 63.3209 and 84.8416 and 54.068
- [3H]5-HT uptake inhibition S1 Mutants (SERT S438T; Log[VLZ] (M) -9.5): 80.1053
- [3H]5-HT uptake inhibition S1 Mutants (SERT S438T; Log[VLZ] (M) -10): 87.6994 and 103.115 and 83.4593
- [3H]5-HT uptake inhibition S1 Mutants (SERT S438T; Log[VLZ] (M) -10.5): 92.1556 and 93.2014 and 102.815 and 97.2843
- [3H]5-HT uptake inhibition S1 Mutants (SERT S438T; Log[VLZ] (M) -11): 102.782 and 106.151 and 94.1598
- [3H]5-HT uptake inhibition S1 Mutants (SERT S438T; Log[VLZ] (M) -12): 100.15 and 89.7676 and 98.9977
- [3H]S-CIT binding inhibition (SERT WT [4]; Log[VLZ] (M) -6): 6.1374 and 6.267 and 9.306 and 7.924
- [3H]S-CIT binding inhibition (SERT WT [4]; Log[VLZ] (M) -7): 15.0029 and 12.5666 and 12.6935 and 13.2177 and 16.0372 and 22.3569
- [3H]S-CIT binding inhibition (SERT WT [4]; Log[VLZ] (M) -8): 20.242 and 17.0122 and 17.5714 and 27.4498 and 22.8662
- [3H]S-CIT binding inhibition (SERT WT [4]; Log[VLZ] (M) -9.5): 93.155 and 87.0219 and 91.9361 and 94.5429
- [3H]S-CIT binding inhibition (SERT WT [4]; Log[VLZ] (M) -10): 90.7785 and 92.3382 and 88.1671 and 94.4965
- [3H]S-CIT binding inhibition (SERT WT [4]; Log[VLZ] (M) -11): 106.327 and 106.337 and 110.336 and 113.218 and 118.473 and 111.36
- [3H]S-CIT binding inhibition (SERT WT [4]; Log[VLZ] (M) -12): 92.524 and 93.4609 and 92.9453 and 86.9585 and 90.0353
- VLZ Allosteric Potency SERT WT, [3H]S-CIT dissociation (Fig. 2C) (SERT WT [5]): 0
- [3H]IMI dissociation (Fig. 2B) (SERT WT [6]; 0.5 nM, time 5 min): 98.1806
- [3H]IMI dissociation (Fig. 2B) (SERT WT [6]; 0.5 nM, time 10 min): 95.2605
- [3H]IMI dissociation (Fig. 2B) (SERT WT [6]; 0.5 nM, time 15 min): 95.3158
- [3H]IMI dissociation (Fig. 2B) (SERT WT [6]; 0.5 nM, time 20 min): 91.8569
- [3H]IMI dissociation (Fig. 2B) (SERT WT [6]; 0.5 nM, time 30 min): 86.7456
- [3H]IMI dissociation (Fig. 2B) (SERT WT [6]; 0.5 nM, time 50 min): 81.092
- [3H]IMI dissociation (Fig. 2B) (SERT WT [6]; 0.5 nM, time 70 min): 71.6978
- [3H]IMI dissociation (Fig. 2B) (SERT WT [6]; 1.6 nM, time 5 min): 98.6368
- [3H]IMI dissociation (Fig. 2B) (SERT WT [6]; 1.6 nM, time 10 min): 97.1109
- [3H]IMI dissociation (Fig. 2B) (SERT WT [6]; 1.6 nM, time 15 min): 94.6142
- [3H]IMI dissociation (Fig. 2B) (SERT WT [6]; 1.6 nM, time 20 min): 91.8363
